Measured values taken from ChEMBL document CHEMBL5729768, “Azalactam compounds as HPK1 inhibitors” (2023).

Assays:
[1] = target: T1, Serine/threonine-protein kinase D2 (Homo sapiens, UniProt Q9BZL6)
T1 sequence (Q9BZL6 whole entry): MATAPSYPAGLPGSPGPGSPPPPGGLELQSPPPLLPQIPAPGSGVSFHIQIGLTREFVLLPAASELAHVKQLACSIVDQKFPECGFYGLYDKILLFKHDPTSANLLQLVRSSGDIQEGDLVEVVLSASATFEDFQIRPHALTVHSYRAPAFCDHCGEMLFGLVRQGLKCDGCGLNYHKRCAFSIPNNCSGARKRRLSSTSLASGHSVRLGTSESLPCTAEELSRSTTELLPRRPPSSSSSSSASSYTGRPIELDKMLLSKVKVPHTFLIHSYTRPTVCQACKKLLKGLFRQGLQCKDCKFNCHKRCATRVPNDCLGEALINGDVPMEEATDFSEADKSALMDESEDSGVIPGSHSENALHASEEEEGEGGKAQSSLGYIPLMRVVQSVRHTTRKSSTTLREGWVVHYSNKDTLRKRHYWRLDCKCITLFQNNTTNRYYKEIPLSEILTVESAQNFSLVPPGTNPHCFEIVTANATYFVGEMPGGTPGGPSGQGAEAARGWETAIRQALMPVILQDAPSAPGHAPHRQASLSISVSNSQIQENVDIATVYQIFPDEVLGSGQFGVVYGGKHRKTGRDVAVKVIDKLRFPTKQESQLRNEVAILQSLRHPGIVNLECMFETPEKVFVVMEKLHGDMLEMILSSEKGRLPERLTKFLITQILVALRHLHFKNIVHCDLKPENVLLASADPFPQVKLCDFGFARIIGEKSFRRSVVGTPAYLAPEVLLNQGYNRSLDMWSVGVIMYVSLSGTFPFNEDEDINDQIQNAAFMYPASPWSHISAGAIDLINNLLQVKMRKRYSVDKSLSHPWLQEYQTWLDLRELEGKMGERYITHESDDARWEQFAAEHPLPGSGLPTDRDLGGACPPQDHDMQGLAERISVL

[2] = target: Ribosomal protein S6 kinase alpha-2 (Homo sapiens, UniProt Q15349)
Ribosomal protein S6 kinase alpha-2, sequence (Q15349 whole entry): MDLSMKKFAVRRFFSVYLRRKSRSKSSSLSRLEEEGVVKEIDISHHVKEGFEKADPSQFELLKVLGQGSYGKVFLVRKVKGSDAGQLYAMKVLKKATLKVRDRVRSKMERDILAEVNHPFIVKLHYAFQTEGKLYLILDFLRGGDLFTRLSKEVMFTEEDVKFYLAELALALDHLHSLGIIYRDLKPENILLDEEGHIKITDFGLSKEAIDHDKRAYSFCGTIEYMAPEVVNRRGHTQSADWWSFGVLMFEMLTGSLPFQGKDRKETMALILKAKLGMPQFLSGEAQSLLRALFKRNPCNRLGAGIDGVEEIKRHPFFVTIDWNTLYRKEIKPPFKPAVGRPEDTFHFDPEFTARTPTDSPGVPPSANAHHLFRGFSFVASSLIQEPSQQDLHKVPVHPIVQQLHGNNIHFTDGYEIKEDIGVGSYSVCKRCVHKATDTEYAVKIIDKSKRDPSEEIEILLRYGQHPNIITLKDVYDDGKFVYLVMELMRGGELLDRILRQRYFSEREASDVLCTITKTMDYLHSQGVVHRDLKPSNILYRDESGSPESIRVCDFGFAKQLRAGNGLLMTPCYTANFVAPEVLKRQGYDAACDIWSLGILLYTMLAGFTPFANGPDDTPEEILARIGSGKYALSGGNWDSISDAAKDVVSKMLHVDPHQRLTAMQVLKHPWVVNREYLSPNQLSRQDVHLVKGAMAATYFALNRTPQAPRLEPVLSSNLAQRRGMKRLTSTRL

Row | IC50 [1] [nM] | IC50 [2] [nM] | SMILES
1 | 251 | 53.5 | CC[C@@H](N)c1nc(N(C)C(C)C)cc2c1CN(c1cccc(-c3nnc4n3[C@@H](C)CC4)n1)C2=O
2 | 942 | 48.6 | COC[C@@H](N)c1nc(C2(C)CC2)cc2c1CN(c1cccc(-c3nnc4n3[C@@H](C)CC4)n1)C2=O
